The text below walks through data of US10588921B2, “Drug for the treatment of cholesterol accumulation disorders” (NATIONAL UNIVERSITY CORPORATION KUMAMOTO UNIVERSITY, priority 2013, dated 2020).

Entries after “also recorded” stand apart in the source; their conditions may differ.

Data set [1] concerns NPC-derived HLCs. The experiment in a line: Cell size of HLCs. The conditions noted are these: data not shown. Format: cell-based, human. As to the method:
The cell sizes of albumin-positive cells was calculated by Developer Toolbox software of IN CELL ANALYZER 6000 (GE Healthcare).
(§1) The size of HLCs is decreased by the treatments with HPBCD and HPGCD (data not shown). Effects of various concentration of HPBCD and HPGCD in NPC-derived HLCs was observes. HLCs were cultured with HPBCD or HPGCD for 4 days, stained with filipin and analyzed with an IN CELL ANALYSER (GE Healthcare).

The subject of another data set is cultured cells. The note with it: Non-Patent Document 5; cited from earlier work.
The subject of the next data set is normal mice. In words: Acute toxicity test in normal mice. The note with it: 14.4 mM, 19.18 ml/g subcutaneous, 8-week-old normal mice; FIG. 34. The data set is classed as in vivo, mouse. As to the method: To confirm the excellent safety of HPGCD, acute toxicity was tested using normal mice. 14.4 mM HPBCD or HPGCD were injected in the amount of 19.18 ml/g into subcutaneous tissues of 8-week-old mice (n=10), and then survival rates were calculated.

Data set [2] deals with p62. The experiment in a line: Immunoblot of insoluble p62 in HLCs. Format: cell-based, human. The note with it: 1 mM HPCD, 4 days; FIG. 23. The procedure:
(§2) Protein lysates were separated by SDS-PAGE and transferred to PVDF membrane. LC3-I and LCS3-II were detected by anti-LC3 antibody (Cell Signaling). The data are normalized to α-tubulin expression. The HLCs were solved in RIPA buffer and then insoluble p62 was collected as a pellet after the centrifuge of the samples.
(§3) HLCs were culture with 1 mM 2-hydroxypropylcyclodextrins (HPCDs) for 4 days, and ATP level, expression levels of LC3 and p62, and insoluble p62 granules were measured.

Data set [3] has as its system NPC model mice. In words: HPGCD treatment of NPC model mice (serum markers, histology, autophagy). The data set is classed as in vivo, mouse. The procedure: Effects of HPGCD treatment on cholesterol accumulation in NPC-derived HLCs were evaluated using NPC-model mice. NPC model mice bear a spontaneous mutation of the Npc1 gene that causes a defect in lysosome to ER trafficking of cholesterol. […] The model mice show liver injury and neural functional impairment and die before 12 weeks old without proper treatment.
4-week-old NPC mice were treated with HPGCD (4000 mg/kg) once a week until 8.5 weeks of age (5 injections in total), followed by sample collection. Control was treated with saline. The experiments were conducted twice (first; n=6; second: n=4).

Data set [4] has as its system NPC model mice. The experiment in a line: Survival of NPC model mice. The note with it: 4-week-old model mice injected once a week; FIG. 33. The data set is classed as in vivo, mouse. The procedure: To evaluate the effect of HPGCD treatment on NPC mice survival, 4-week-old model mice were injected with HPGCD one a week (HPGCD injection group: n=6, control (saline injection) group: n=6).

The test system of data set [5] is NPC-derived HLCs. The experiment in a line: Measurement of ATP in HLCs. The note with it: 1 mM HPCD, 4 days; FIG. 21. Format: cell-based, human. As to the method: Hepatocyte-like cells derived from the iPSC lines were cultured in DMEM medium in the absence of glucose for 24 hours and were then cultured in the DMEM medium containing 10% FBS and high glucose for 6 hours. ATP was measured by ATP measurement Kit (TOYO INK), according to the manufacturer's protocol.
as §3

The subject of data set [6] is NPC-derived HLCs. The data set is classed as cell-based, human. The procedure:
For hepatocyte-like cell (HLC) induction, the culture medium of semi-confluent human iPS cells were switched from the iPS medium to the definitive endoderm differentiation medium containing RPMI1640 supplemented with 2% B27 (Life technologies), 100 ng/m1 Activin A and 1 mM Sodium butyrate (NaB, SIGMA). The NaB concentration is changed in 0.5 mM on day 2. On day 4, the cells were harvested and re-seeded onto Matrigel-coated dishes in hepatic differentiation medium containing DMEM supplemented with 20% KSR, 1 mM glutamine, 1 mM NEAA, 0.1 mM 2-mercaptoethanol (SIGMA), 1% Dimethyl sulfoxide (DMSO, SIGMA). CXCR4 expressions were examined by FACS on day 4. On day 11, the cells were harvested and re-cultured in the hepatic maturation medium containing L15 medium (SIGMA) supplemented with 8.3% FBS, 8.3% tryptose phosphate broth (SIGMA), 10 mM hydrocortisone 21-hemisuccinate (SIGMA), 1 mM insulin (SIGMA), 2 mM glutamine, lOng/ml Hepatocyte growth factor (HGF, R & D) and 20 ng/ml Oncostatin M (OSM, R & D). On day 18, the cells were used for various experiments. For the hydroxypropyl cyclodextrin treatments, HLCs were cultured with 0.1 mM or 1 mM of the hydroxypropyl cyclodextrins for four days. For Annexin and TUNEL stainings, HLCs are cultured for four days and a week from day 18, respectively.
(§4) Alkaline phosphatase staining was performed using the Leukocyte Alkaline Phosphatase kit (SIGMA). For immunocytochemistry, cells were fixed with PBS containing 4% paraformaldehyde for 30 min at 4° C. For the molecules localized in nucleus, samples were treated with 0.2% Triton X-100 for 15 min at room temperature (RT). The cells were washed three times with PBS containing 2% FBS and then incubated overnight at 4° C. in PBS containing 2% FBS with primary antibodies. Nucleuses were stained with Propidium Iodide (PI, WAKO, Japan) and 1 mg/ml Hoechst 33258 (Invitrogen). The list of the primary and secondary antibodies is described in Table 3. For Filipin staining, samples were washed with PBS three times after the fixing and incubated with PBS containing 1.5 mg/ml glycine for 10 min at RT. The samples were then treated with PBS containing 10% FBS and 50 mg/ml Filipin (SIGMA). The data was calculated by UV absorption (360/460) and analyzed with Developer Toolbox software of IN CELL ANALYZER 6000 (GE Healthcare). The number of insoluble p62 granules were counted by IN CELL ANALYZER 6000 (GE Healthcare). To investigate glycogen accumulation, Periodic acid Schiff (PAS) staining of hepatocyte-like cells were performed by PAS staining solution (Muto Pure chemicals, Tokyo, Japan), according to the manufacturer's protocol.
The inventors therefore treated the HLCs derived from normal and NPC-iPS cell lines with a series of 2-hydroxypropyl-cyclodextrins with different cavity sizes, and observed effect of a series of hydroxypropyl-cyclodextrins. HLCs were cultured with 1 mM of the indicated hydroxypropyl-cyclodextrin for 4 days, stained with filipin and analyzed with an IN CELL ANALYSER (GE Healthcare) (FIG. 18).
as §1

The test system of a further data set is isolated erythrocyte. The note with it: in vitro; cited from earlier work.
Data set [7] relates to p62. The experiment in a line: Count of insoluble p62 granules in HLCs (IN CELL ANALYZER). Format: cell-based, human. The conditions noted are these: 1 mM HPCD, 4 days; FIG. 24. As to the method: as §4, with “To investigate glycogen accumulation, Periodic acid Schiff (PAS) staining of hepatocyte-like cells were performed by PAS staining solution (Muto Pure chemicals, Tokyo, Japan), according to the manufacturer's protocol.” left out
as §3

The next data set has as its system LC3. The experiment in a line: Immunoblot of LC3 expression in HLCs. The conditions noted are these: 1 mM HPCD, 4 days; FIG. 22. The data set is classed as cell-based, human. The procedure: as §2, §3
Setting [8] is: 4000 mg/kg once a week from 4 to 8.5 weeks of age, FIG. 30.

In the case of 2-hydroxypropyl-γ-cyclodextrin [HPGCD], the “size of HLCs” value in the data set with NPC-derived HLCs [1] is “decreased”. For the same substance, the cholesterol dissolution activity entry in the data set on cultured cells is “a several tenth part or less, compared with that of HPBCD”. Moreover, the “survival after injection (acute toxicity)” value in the data set on normal mice is recorded as “no mice dies”. Also, the “amount of insoluble p62” value with p62 [2] is reported as “reduced the amount of insoluble p62”. Besides, in the data set with NPC model mice [3] (setting [8]), the “ALT (alanine aminotransferase), serum marker for liver injury” value was “markedly and significantly reduced”; the “AST (aspartate aminotransferase), serum marker for liver injury” value is “markedly and significantly reduced”. For the same substance, the “histological analysis of livers” value with NPC model mice [3] (4000 mg/kg once a week, FIG. 31) was “marked morphological improvement”. In addition, in the data set with NPC model mice [3] (4000 mg/kg once a week, FIG. 32), the “deletion of Purkinje cells in the cerebellum” value is given as “rescued; also recorded: restored”. For the same substance, in the data set with NPC model mice [3] (data not shown), the “abnormal autophagy in NPC mice” value is listed as “restored”; the “expression level of LC3 in livers and brains” value is recorded as “restored to the normal level”; the “expression level of insoluble p62 in livers and brains” value is recorded as “restored to the normal level”. Further, the NPC mouse survival result with NPC model mice [4] is “significantly prolonged”. The ATP level result in the data set with NPC-derived HLCs [5] was “recovered”. In the data set with NPC-derived HLCs [6], the “activity on hepatocyte-like cells differentiation-induced from NPC patient-derived iPS cells” value is listed as “equal to or more than that of HPBCD”, the “cholesterol accumulated in hepatocyte-like cells derived from NPC” value is “removed cholesterol accumulated in hepatocyte-like cells derived from NPC” and the “function of the hepatocyte-like cells” value was “recovered the function of the hepatocyte-like cells”. Besides, in the data set with NPC-derived HLCs [6] (1 mM hydroxypropyl-cyclodextrin, 4 days, FIG. 18), the “cholesterol accumulation in NPC-HLCs (filipin staining)” value is on record as “reduced the cholesterol accumulation in NPC-HLCs to the same extent as that observed for HPBCD”. In addition, in the data set on NPC-derived HLCs [6] (low concentration 100 μM, 4 days, FIG. 19), the “cholesterol accumulation in NPC-derived HLCs (filipin staining)” value is reported as “ineffective for reducing cholesterol accumulation”. The “hemolytic activity (order)” value in the data set with isolated erythrocyte is reported as “HPBCD>HPACD>HPGCD”. Besides, the “proportion of HLCs carrying more than 40 granules of insoluble p62 aggregation” value with p62 [7] is listed as “greatly reduced”. The “expression level of LC3” value in the data set on LC3 is given as “recovered to normal levels”.
